These results are taken from US11912794B2, “Modulation of structured polypeptide specificity” (BicycleRD Limited, priority 2011, dated 2024).

Numbered stars: 1 amine (or outer) side, 2 acyl side, 3 side chain; on linkers, the order of the positions; unused ones are H or OH. Bridge positions count the residues as written; N and C are the ends. Square brackets hold non-standard residues; d marks the D form. Peptide text beside a SMILES is read from it. Pro(trans-4-F) = O=C(O)[C@@H]1C[C@@H](F)CN1; Bip = N[C@@H](Cc1ccc(-c2ccccc2)cc1)C(=O)O; Tpi = O=C(O)[C@@H]1Cc2c([nH]c3ccccc23)CN1; Dip = N[C@H](C(=O)O)C(c1ccccc1)c1ccccc1; X1 = O=C([C@@H]1Cc2ccccc2N1[*:1])[*:2]; 1Nal = N[C@@H](Cc1cccc2ccccc12)C(=O)O; TBMB = c1c(C[*:1])cc(C[*:3])cc1C[*:2]; NMeR = CN[C@@H](CCCNC(=N)N)C(=O)O; hArg = N=C(N)NCCCC[C@H](N)C(=O)O; 3Pal = N[C@@H](Cc1cccnc1)C(=O)O; 4Pal = N[C@@H](Cc1ccncc1)C(=O)O; Cha = N[C@@H](CC1CCCCC1)C(=O)O; Pip = O=C(O)[C@@H]1CCCCN1; Dpg = CCCC(N)(CCC)C(=O)O; Aze = O=C(O)[C@@H]1CCN1

The data set is described as follows: Plasma stability profiling method 1 (35% plasma, MALDI-TOF, qualitative). Format: in vitro ADME, rat. The conditions noted are these: 35% rat plasma, 37 deg C, method 1, comparative estimate. The method, then: Three methods were employed to assess the stability of bicycles (peptides conjugated to molecular scaffolds) in plasma.
A rapid plasma stability profiling assay was developed that employed mass spectrometric detection (MALDI-TOF, Voyager DE, Applied Biosystems) of the parent mass, until the time when the parent peptide mass was no longer observable. Specifically, 200 uM of peptide was incubated in the presence of 35% rat or human plasma (Sera labs, using citrate as anticoagulant) at 37 deg C., which was supplemented with 1×PBS (derived from a 10×PBS Stock, Sigma). At various time points (i.e. t=0, 3, 24 hrs, henceafter daily up to 10 days), 2 uL of sample was added to 18 uL of 30 mM ammonium bicarbonate in a 1:1 mixture of acetonitrile:H2O. Samples were frozen at −80 deg C. until the time of analysis. For mass spectrometric analysis that determines the approximate detection window of the peptide, the acetonitrile:H2O-diluted sample of a given time point was spotted directly (0.7 uL) onto the MALDI plate. Matrix (alpha-cyanocinnamic acid, Sigma, prepared as a saturated solution in 1:1 acetonitrile:water containing 0.1% trifluoroacetic acid) was layered over the sample (1 uL). At a similar laser intensity setting on the MALDI TOF, the time could then be determined until parent peptide was no longer detectable. It should be noted that this is a qualitative assay serves to detect relative changes in plasma stability.
Regarding `CC(=O)N[C@H]1CSCc2cc3cc(c2)CSC[C@H](NC(=O)[C@H](CCCNC(=N)N)NC(=O)[C@H](C)NC(=O)[C@@H]2Cc4ccccc4N2C(=O)[C@H](Cc2c[nH]c4ccccc24)NC(=O)[C@H](CO)NC1=O)C(=O)N[C@@H](CC(C)C)C(=O)N[C@@H](Cc1c[nH]cn1)C(=O)N[C@@H](CCC(N)=O)C(=O)N[C@@H](CC(=O)O)C(=O)N[C@@H](CC(C)C)C(=O)N[C@H](C(N)=O)CSC3` [Ac-(06-34-18) Ind3] (Ac-CSW[X1]ARCLHQDLC-NH2; linker 1-7-13 via TBMB), the “Observable in rat plasma, for days” value is 2 days.

Regarding `CC(=O)N[C@H]1CSCc2cc3cc(c2)CSC[C@H](NC(=O)[C@H](CCCNC(=N)N)NC(=O)[C@H](C)NC(=O)[C@@H]2CCCN2C(=O)[C@H](Cc2ccc(-c4ccccc4)cc2)NC(=O)[C@H](CO)NC1=O)C(=O)N[C@@H](CC(C)C)C(=O)N[C@@H](Cc1c[nH]cn1)C(=O)N[C@@H](CCC(N)=O)C(=O)N[C@@H](CC(=O)O)C(=O)N[C@@H](CC(C)C)C(=O)N[C@H](C(N)=O)CSC3` [Ac-(06-34-18) 4,4,BPal2] (Ac-CS[Bip]PARCLHQDLC-NH2; linker 1-7-13 via TBMB), the “Observable in rat plasma, for days” value was 2 days.

In the case of `CC(=O)N[C@H]1CSCc2cc3cc(c2)CSC[C@H](NC(=O)[C@H](CCCNC(=N)N)NC(=O)[C@H](C)NC(=O)[C@@H]2CCCN2C(=O)[C@H](Cc2cccnc2)NC(=O)[C@H](CO)NC1=O)C(=O)N[C@@H](CC(C)C)C(=O)N[C@@H](Cc1c[nH]cn1)C(=O)N[C@@H](CCC(N)=O)C(=O)N[C@@H](CC(=O)O)C(=O)N[C@@H](CC(C)C)C(=O)N[C@H](C(N)=O)CSC3` [Ac-(06-34-18) 3Pal2] (Ac-CS[3Pal]PARCLHQDLC-NH2; linker 1-7-13 via TBMB), the “Observable in rat plasma, for days” value is 2 days.

`CC(=O)N[C@H]1CSCc2cc3cc(c2)CSC[C@H](NC(=O)[C@H](CCCNC(=N)N)NC(=O)[C@H](C)NC(=O)[C@@H]2CCCCN2C(=O)[C@H](Cc2c[nH]c4ccccc24)NC(=O)[C@H](CO)NC1=O)C(=O)N[C@@H](CC(C)C)C(=O)N[C@@H](Cc1c[nH]cn1)C(=O)N[C@@H](CCC(N)=O)C(=O)N[C@@H](CC(=O)O)C(=O)N[C@@H](CC(C)C)C(=O)N[C@H](C(N)=O)CSC3` [Ac-(06-34-18) Pip3] (Ac-CSW[Pip]ARCLHQDLC-NH2; linker 1-7-13 via TBMB): the “Observable in rat plasma, for days” value is listed as 2 days.

In the case of `CC(=O)N[C@H]1CSCc2cc3cc(c2)CSC[C@H](NC(=O)[C@H](CCCNC(=N)N)N(C)C(=O)[C@H](C)NC(=O)[C@@H]2CCN2C(=O)[C@H](Cc2c[nH]c4ccccc24)NC(=O)[C@H](CO)NC1=O)C(=O)N[C@@H](CC(C)C)C(=O)N[C@@H](Cc1c[nH]cn1)C(=O)N[C@@H](CCC(N)=O)C(=O)N[C@@H](CC(=O)O)C(=O)N[C@@H](CC(C)C)C(=O)N[C@H](C(N)=O)CSC3` [Ac-(06-34-18) Aze3 NMeArg5] (Ac-CSW[Aze]A[NMeR]CLHQDLC-NH2; linker 1-7-13 via TBMB), the “Observable in rat plasma, for days” value is over 10 days.

In the case of `CCCC1(CCC)NC(=O)[C@@H](NC(C)=O)CSCc2cc3cc(c2)CSC[C@H](NC(=O)[C@H](CCCNC(=N)N)NC(=O)[C@H](C)NC(=O)[C@@H]2CCCN2C(=O)[C@H](Cc2c[nH]c4ccccc24)NC1=O)C(=O)N[C@@H](CC(C)C)C(=O)N[C@@H](Cc1c[nH]cn1)C(=O)N[C@@H](CCC(N)=O)C(=O)N[C@@H](CC(=O)O)C(=O)N[C@@H](CC(C)C)C(=O)N[C@H](C(N)=O)CSC3` [Ac-(06-34-18) Dpg1] (Ac-C[Dpg]WPARCLHQDLC-NH2; linker 1-7-13 via TBMB), the “Observable in rat plasma, for days” value is 2 days.

As for `CC(=O)N[C@H]1CSCc2cc3cc(c2)CSC[C@H](NC(=O)[C@H](CCCNC(=N)N)NC(=O)[C@H](C)NC(=O)[C@@H]2CCCN2C(=O)[C@H](Cc2cccc4ccccc24)NC(=O)[C@H](CO)NC1=O)C(=O)N[C@@H](CC(C)C)C(=O)N[C@@H](Cc1c[nH]cn1)C(=O)N[C@@H](CCC(N)=O)C(=O)N[C@@H](CC(=O)O)C(=O)N[C@@H](CC(C)C)C(=O)N[C@H](C(N)=O)CSC3` [Ac-(06-34-18) 1NAL2] (Ac-CS[1Nal]PARCLHQDLC-NH2; linker 1-7-13 via TBMB), the “Observable in rat plasma, for days” value is on record as 2 days.

On to `CC(=O)N[C@H]1CSCc2cc3cc(c2)CSC[C@H](NC(=O)[C@H](CCCNC(=N)N)NC(=O)[C@H](C)NC(=O)[C@@H]2CCCN2C(=O)[C@H](CC2CCCCC2)NC(=O)[C@H](CO)NC1=O)C(=O)N[C@@H](CC(C)C)C(=O)N[C@@H](Cc1c[nH]cn1)C(=O)N[C@@H](CCC(N)=O)C(=O)N[C@@H](CC(=O)O)C(=O)N[C@@H](CC(C)C)C(=O)N[C@H](C(N)=O)CSC3` [Ac-(06-34-18) Cha2] (Ac-CS[Cha]PARCLHQDLC-NH2; linker 1-7-13 via TBMB), for which the “Observable in rat plasma, for days” value is given as 2 days.

As to `CC(=O)N[C@H]1CSCc2cc3cc(c2)CSC[C@H](NC(=O)[C@H](CCCNC(=N)N)NC(=O)[C@H](C)NC(=O)[C@@H]2CCCN2C(=O)[C@H](Cc2ccncc2)NC(=O)[C@H](CO)NC1=O)C(=O)N[C@@H](CC(C)C)C(=O)N[C@@H](Cc1c[nH]cn1)C(=O)N[C@@H](CCC(N)=O)C(=O)N[C@@H](CC(=O)O)C(=O)N[C@@H](CC(C)C)C(=O)N[C@H](C(N)=O)CSC3` [Ac-(06-34-18) 4Pal2] (Ac-CS[4Pal]PARCLHQDLC-NH2; linker 1-7-13 via TBMB), the “Observable in rat plasma, for days” value is given as 2 days.

Turning to `CC(=O)N[C@H]1CSCc2cc3cc(c2)CSC[C@H](NC(=O)[C@H](CCCNC(=N)N)NC(=O)[C@H](C)NC(=O)[C@@H]2CCCN2C(=O)[C@H](C(c2ccccc2)c2ccccc2)NC(=O)[C@H](CO)NC1=O)C(=O)N[C@@H](CC(C)C)C(=O)N[C@@H](Cc1c[nH]cn1)C(=O)N[C@@H](CCC(N)=O)C(=O)N[C@@H](CC(=O)O)C(=O)N[C@@H](CC(C)C)C(=O)N[C@H](C(N)=O)CSC3` [Ac-(06-34-18) 3,3-DPA2] (Ac-CS[Dip]PARCLHQDLC-NH2; linker 1-7-13 via TBMB), the “Observable in rat plasma, for days” value is given as 2 days.

As for `CC(=O)N[C@H]1CSCc2cc3cc(c2)CSC[C@H](NC(=O)[C@H](CCCNC(=N)N)NC(=O)[C@H](C)NC(=O)[C@@H]2Cc4c([nH]c5ccccc45)CN2C(=O)[C@H](Cc2c[nH]c4ccccc24)NC(=O)[C@H](CO)NC1=O)C(=O)N[C@@H](CC(C)C)C(=O)N[C@@H](Cc1c[nH]cn1)C(=O)N[C@@H](CCC(N)=O)C(=O)N[C@@H](CC(=O)O)C(=O)N[C@@H](CC(C)C)C(=O)N[C@H](C(N)=O)CSC3` [Ac-(06-34-18) NorHar3] (Ac-CSW[Tpi]ARCLHQDLC-NH2; linker 1-7-13 via TBMB), the “Observable in rat plasma, for days” value is given as 2 days.

For the molecule `CC(=O)N[C@H]1CSCc2cc3cc(c2)CSC[C@H](NC(=O)[C@H](CCCNC(=N)N)NC(=O)[C@H](CO)NC(=O)[C@@H]2CCCN2C(=O)[C@H](Cc2c[nH]c4ccccc24)NC(=O)[C@H](CO)NC1=O)C(=O)N[C@@H](CC(C)C)C(=O)N[C@@H](Cc1c[nH]cn1)C(=O)N[C@@H](CCC(N)=O)C(=O)N[C@@H](CC(=O)O)C(=O)N[C@@H](CC(C)C)C(=O)N[C@H](C(N)=O)CSC3` [Ac-(06-34-18) WPSR] (Ac-CSWPSRCLHQDLC-NH2; linker 1-7-13 via TBMB), the “Observable in rat plasma, for days” value is recorded as 2 days.

As to `CC(=O)N[C@H]1CSCc2cc3cc(c2)CSC[C@H](NC(=O)[C@H](CCCNC(=N)N)NC(=O)[C@H](C)NC(=O)[C@@H]2C[C@@H](F)CN2C(=O)[C@H](Cc2c[nH]c4ccccc24)NC(=O)[C@H](CO)NC1=O)C(=O)N[C@@H](CC(C)C)C(=O)N[C@@H](Cc1c[nH]cn1)C(=O)N[C@@H](CCC(N)=O)C(=O)N[C@@H](CC(=O)O)C(=O)N[C@@H](CC(C)C)C(=O)N[C@H](C(N)=O)CSC3` [Ac-(06-34-18) 4FluoPro3] (Ac-CSW[Pro(trans-4-F)]ARCLHQDLC-NH2; linker 1-7-13 via TBMB), the “Observable in rat plasma, for days” value is reported as 2 days.

Take `CC(=O)N[C@H]1CSCc2cc3cc(c2)CSC[C@H](NC(=O)[C@H](CCCNC(=N)N)NC(=O)[C@H](C)NC(=O)[C@@H]2CCCN2C(=O)[C@@H]2Cc4c([nH]c5ccccc45)CN2C(=O)[C@H](CO)NC1=O)C(=O)N[C@@H](CC(C)C)C(=O)N[C@@H](Cc1c[nH]cn1)C(=O)N[C@@H](CCC(N)=O)C(=O)N[C@@H](CC(=O)O)C(=O)N[C@@H](CC(C)C)C(=O)N[C@H](C(N)=O)CSC3` [Ac-(06-34-18) NorHar2] (Ac-CS[Tpi]PARCLHQDLC-NH2; linker 1-7-13 via TBMB): the “Observable in rat plasma, for days” value is listed as 2 days.

As to `CC(=O)N[C@H]1CSCc2cc3cc(c2)CSC[C@H](NC(=O)[C@H](CCCCNC(=N)N)NC(=O)[C@H](C)NC(=O)[C@@H]2CCN2C(=O)[C@H](Cc2c[nH]c4ccccc24)NC(=O)[C@H](CO)NC1=O)C(=O)N[C@@H](CC(C)C)C(=O)N[C@@H](Cc1c[nH]cn1)C(=O)N[C@@H](CCC(N)=O)C(=O)N[C@@H](CC(=O)O)C(=O)N[C@@H](CC(C)C)C(=O)N[C@H](C(N)=O)CSC3` [Ac-(06-34-18) Aze3 HomoArg5] (Ac-CSW[Aze]A[hArg]CLHQDLC-NH2; linker 1-7-13 via TBMB), the “Observable in rat plasma, for days” value is over 10 days.
